Where a SMILES comes first, the peptide text is derived from it. Bridges are numbered along the chain shown (N, C = ends). [ ]: non-standard residue; d: D form. hArg = N=C(N)NCCCC[C@H](N)C(=O)O; Mpa = O=C(O)CCS
B1: Reopro: antibody based GPIIbIIIa antagonist (antibody, chains of the INN, looked up, V domains shown)
VH: EVQLQQSGTVLARPGASVKMSCEASGYTFTNYWMHWVKQRPGQGLEWIGAIYPGNSDTSYIQKFKGKAKLTAVTSTTSVYMELSSLTNEDSAVYYCTLYDGYYVFAYWGQGTLVTVSA
VL: EIVLTQSPVTLSVTPGDSVSLSCRASRDISNNLHWFQQTSHESPRLLIKYASQSMSGIPSRFSGSGSGTDFTLSINSVETEDFGMYFCQQTNSWPYTFGGGTKLEIK
modifications: Fab
notes: antibody based GPIIbIIIa antagonist

What was measured:
platelet aggregation [1] = assay: Light transmission aggregometry (LTA) in PPACK platelet rich plasma, ADP-induced aggregation; type: cell-based, human; settings: samples in which Ultegra measures inhibition of 80% or greater, average lower end of a range reaching greater than 80%, ADP 20 μM
Procedure: Sufficient blood volume was collected to complete matched comparisons for each donor in all three assays. Using a 19 g butterfly needle, blood was collected by venipuncture into a plastic syringe and transferred to a tube containing PPACK anticoagulant (0.3 mM final concentration) or into PPACK vacuettes provided by Ultegra®. An EDTA baseline tube was also drawn per Plateletworks® recommendation. One 10 mL sample of PPACK blood was centrifuged at 135 g for 15 minutes to obtain platelet rich plasma (“PRP”) for use in traditional light transmission aggregometry. The residual blood from this tube was centrifuged at 1500 g for 15 minutes to obtain platelet poor plasma (“PPP”). PRP was diluted to 250,000/mm^3 with autologous PPP. Diluted PRP (0.5 ml) was added to an aggregation cuvette and placed into the 37° C. aggregation chamber. Eptifibatide (125-4000 nM) or tirofiban (25-200 nM) was added to PRP, incubated for at least two minutes. 50 μl ADP (20 μM final concentration) was added to 0.45 ml PRP and the aggregation response was recorded. A baseline aggregation response (no antagonist present) was determined for each donor. Percent aggregation was calculated at the point of maximum light transmission obtained within five minutes. Percent inhibition of aggregation (IPA) was calculated using the following formula: [formula]

platelet aggregation [2] = assay: ICHOR/Plateletworks whole blood platelet aggregation (platelet count), PPACK anticoagulant, ADP agonist; type: cell-based, human; settings: for platelet inhibition measured by ICHOR/Plateletworks: samples in which Ultegra measures inhibition of 80% or greater, average lower end of a range reaching greater than 80%, PPACK whole blood, ADP 20 μM
Procedure: Whole blood platelet aggregation was performed using a procedure modified from that outlined in the Helena Plateletworks® brochure. PPACK anticoagulant was used instead of citrate due to the well-documented effect of citrate overestimating the level of platelet inhibition by all currently approved GPIIb-IIIa antagonists (Phillips et al., “Effect of Ca^++ on Integrilin™ GPIIb-IIIa Interactions: Enhanced GPIIb-IIIa Binding and Inhibition of Platelet Aggregation by Reductions in the Concentration of Ionized Calcium in Plasma Anticoagulated with Citrate,” Circulation 96:1488-1494 (1997); Nannizzi-Alaimo et al., “Effect of Citrate Anticoagulation and Platelet Agonist Concentration on the Inhibitory Activities of GPIIb-IIIa Antagonists,” Circulation 100:1710 (1999); Kereiakes et al., “Differential Effects of Citrate Versus PPACK Anticoagulation on Measured Platelet Inhibition by Abciximab, Eptifibatide and Tirofiban,” J. Thromb. Thrombolysis 12:123-127 (2001); Jennings et al., “The Pharmacodynamics of Parenteral Glycoprotein IIb/IIIa Inhibitors,” J. Interv. Cardiol. 15(1):45-60 (2002), each of which is hereby incorporated by reference in its entirety). For this assay, 1.0 ml of PPACK anticoagulated whole-blood was mixed with increasing concentrations of eptifibatide or tirofiban and incubated for at least 2 minutes. After addition of ADP (20 μM), the tube was inverted 15-20 times to ensure mixing, and the platelet count was performed immediately (test sample). A baseline tube was also drawn and handled exactly as the antagonist sample tube minus the addition of agonist. A platelet count was also performed on blood collected into EDTA per the manufacturer's instructions. Percent inhibition of platelet aggregation was obtained from the platelet inhibition/aggregation calculation wheel provided with Plateletworks®.
When testing samples containing Reopro, the ICHOR instrument never achieves more than 60% inhibition of aggregation. […]

Molecule | platelet inhibition measured by LTA (platelet aggregation [1]) [%] | platelet inhibition measured by ICHOR/Plateletworks (platelet aggregation [2]) [%] | inhibition of aggregation (maximum achieved on ICHOR instrument) (platelet aggregation [2]; samples containing Reopro, microaggregates are counted as aggregation) [%]
CCCCS(=O)(=O)N[C@@H](Cc1ccc(OCCCCC2CCNCC2)cc1)C(=O)O [tirofiban] | ≥ 35 | ≥ 35 | –
N=C(N)NCCCC[C@@H]1NC(=O)CCSSC[C@@H](C(N)=O)NC(=O)[C@@H]2CCCN2C(=O)[C@H](Cc2c[nH]c3ccccc23)NC(=O)[C@H](CC(=O)O)NC(=O)CNC1=O [eptifibatide] ([Mpa][hArg]GDWPC-NH2; disulfide 1-7) | ≥ 30 | ≥ 30 | –
B1 | – | – | ≤ 60

From patent US20050019742A1, “Methods for assessment of platelet aggregation” (priority 2002, published 2005)
